{"source": "patent US20220401385A1", "about": "“Combination Therapy Based on PD-1 Signaling Inhibitors” (Kyoto University, priority 2019, published 2022)", "key": {"CD44 low CD8+ T cells [1]": {"test_system": "CD44 low CD8+ T cells", "test": "Seahorse OCR, ATP production and SRC in vitro, CD44 low cells", "type": "cell-based, mice", "conditions": "SPD 0.2 μM", "method": "FIG. 4 CD8^+ T cells were isolated from the spleen of mice without tumor inoculation, and further isolated into CD44^+ (CD44 high) and CD44^− (CD44 low) cell populations. a) CD44 low cells were simulated with CD3/CD28 antibody beads and SPD (0.2 μM). After 30 minutes, 1 hour, 2 hours and 72 hours, OCR was measured with a Seahorse analyzer. b) At the same time, total ATP production and glycolytic pathway-derived or mitochondrial activity-derived ATP production were calculated at 30-minute, 1-hour and 2-hour. c) CD44 low cells (2×10^5 cells) were stimulated with CD3/CD28 antibody beads and SPD (0.2 μM). After 24 hours, cell proliferation was examined by means of 3H uptake. d) Spare respiratory capacity (SRC) was calculated from the OCR measurement after 72 hours in a), and results with and without SPD were compared. e) CD44 low cells were stimulated with CD3/CD28 antibody beads and SPD (0.2 μM). After 24 hours, frequencies between apoptotic and viable cells were calculated by PI and Annexin staining. f-j) CD44 high cells were analyzed under the same conditions and by the same methods as described in a-e) above. As regards statistical analysis, t-test was used for comparison of two groups, and ANOVA was used for comparison of three or more groups. * p<0.05, ** p<0.01, *** p<0.001, **** p<0.0001.\nOxygen consumption rates were measured using an XF96 Extracellular Flux Analyzer (Seahorse Bioscience). CD8^+ T cells (4×10^5) per well were seeded in a determined XF96 plate. The four chemical modulators of mitochondrial oxidative phosphorylation, which came with an XF Cell Mito Stress Test Kit (Seahorse Bioscience), were added to the module sequentially. In brief, basal OCR measurement was performed […] sequential addition of oligomycin, FCCP, and rotenone/antimycin A. SRC and ATP production rates were calculated by the following formulas:\nSRC (pmo; 02/min)=OCRmaximal−OCRbasal\nmitoATP (pmol ATP/min)=(OCRbasal−OCRoligo)×5.5."}, "CD44 low CD8+ T cells [2]": {"test_system": "CD44 low CD8+ T cells", "test": "Mitochondria-related proteomics in vitro, CD44 low cells", "type": "cell-based, mice", "conditions": "late phase, 44 hours after SPD stimulation", "method": "FIG. 6 CD8^+ T cells were isolated from the spleen of mice without tumor inoculation, and further isolated into CD44^+ (CD44 high) and CD44^− (CD44 low) cell populations. CD44 low cells and CD44 high cells were simulated with CD3/CD28 antibody beads and SPD (0.2 μM). After 1 hour and 44 hours, cells were collected and proteomics analyses regarding mitochondria-related proteins were conducted. A heat map showing the categories of respective signaling pathways, associated protein names and comparison of their expression levels is given.\nT cells were prepared by two methods. For in vivo analysis, 13 days after tumor inoculation and 3 days after the start of therapy, draining lymph nodes from 5 mice were pooled, followed by isolation of CD8^+ T cells. From the isolated CD8^+ T cells, three samples each consisting of 1×10^6 cells were prepared and used for analysis. For in vitro experiments, 2×10^5 CD8^+ T cells stimulated with 0.2 μM spermidine for 1 hour were used. For mass spectrometry analysis, a Tandem Mass Tag (TMT) system or a Data Independent Acquisition (DIA) system was used. In the analysis of in vivo CD8^+ T cells (FIG. 3), those proteins which increased by 1.5-fold or more or decreased by 0.6-fold or less were extracted."}, "MC38 cells": {"test_system": "MC38 cells", "test": "MC38 therapy model in aged mice, tumor growth and survival", "type": "in vivo", "conditions": "56-week old mice; combination PD-L1 antibody (2 mg/kg) + SPD (2 mg/kg)", "method": "FIG. 7 MC38 cells (5×10^5) were intradermally inoculated into 56-week old mice, which were treated along with the treatment schedule described in FIG. 1. PD-L1 antibody (2 mg/kg) and SPD (2 mg/kg) were used. a) Tumor growth curve and survival curve are shown. b) The frequency of CD8^+ T cells among lymphocytes infiltrating into tumor (in CD45^+ gate) and the absolute number of CD8^+ T cells per mg tumor 13 days after tumor inoculation are shown. c) CD8^+ T cells were isolated from spleen cells on the same schedule as b) and cultured for 20 hours under the stimulation with CD3/CD28. Cell proliferation was examined by means of ^3H uptake. d) CD8^+ T cells were isolated from draining lymph nodes on the same schedule as b) and glycolytic pathway-derived or mitochondrial metabolism-derived ATP production was calculated by Seahorse. e) Spare respiratory capacity (SRC) was also calculated in the experiment (d).\nMC38 cells (5×10^5) were intradermally injected on the right flank. […] Tumors were measured on every alternate day, and tumor volumes were calculated using the formula for typical ellipsoid, π×(length×breadth×height/6).\nIt is known from mouse model experiments that the effect of PD-1 inhibitory antibody therapy decreases in aged mice due to their decreased immunity. […] Spare respiratory capacity (SRC) was also calculated. […]"}}, "note": "“Also recorded” adds a separate entry of the source."}
{"compound": "NCCCCNCCCN", "note": "[SPD, spermidine]", "values": [{"measurement": "mitochondrial oxygen consumption (OCR)", "setting": "CD44 low CD8+ T cells [1]; 30 minutes, 1 hour, 2 hours and 72 hours after stimulation", "value": "increased"}, {"measurement": "ATP production via glycolytic pathway (glyco ATP)", "setting": "CD44 low CD8+ T cells [1]; 1 hour after stimulation", "value": "significantly high"}, {"measurement": "ATP production via intramitochondrial pathway (mito ATP)", "setting": "CD44 low CD8+ T cells [1]; 1 hour after stimulation", "value": "significantly high"}, {"measurement": "spare respiratory capacity (SRC)", "setting": "CD44 low CD8+ T cells [1]; 72 hours", "value": "enhanced; also recorded: significantly high"}, {"measurement": "expression levels of mitochondrial proteins and proteins of mitochondria-related metabolism", "setting": "CD44 low CD8+ T cells [2]", "value": "high"}, {"measurement": "tumor shrinking effect", "setting": "MC38 cells", "value": "enhanced tumor shrinking effect"}]}
